Where a name gives a salt, the structure may show the parent alone.
How the values were obtained:
[1] = biological target: purified human plasma kallikrein (Homo sapiens (Human), UniProt P03952); assay: biochemical; type: biochemical; conditions: read-out: Plasma Kallikrein Ki
[2] = biological target: purified human Factor XIa (Homo sapiens (Human), UniProt P03951); assay: biochemical; type: biochemical; conditions: read-out: Factor XIa Ki
Chain of purified human Factor XIa (P03951 whole entry, looked up): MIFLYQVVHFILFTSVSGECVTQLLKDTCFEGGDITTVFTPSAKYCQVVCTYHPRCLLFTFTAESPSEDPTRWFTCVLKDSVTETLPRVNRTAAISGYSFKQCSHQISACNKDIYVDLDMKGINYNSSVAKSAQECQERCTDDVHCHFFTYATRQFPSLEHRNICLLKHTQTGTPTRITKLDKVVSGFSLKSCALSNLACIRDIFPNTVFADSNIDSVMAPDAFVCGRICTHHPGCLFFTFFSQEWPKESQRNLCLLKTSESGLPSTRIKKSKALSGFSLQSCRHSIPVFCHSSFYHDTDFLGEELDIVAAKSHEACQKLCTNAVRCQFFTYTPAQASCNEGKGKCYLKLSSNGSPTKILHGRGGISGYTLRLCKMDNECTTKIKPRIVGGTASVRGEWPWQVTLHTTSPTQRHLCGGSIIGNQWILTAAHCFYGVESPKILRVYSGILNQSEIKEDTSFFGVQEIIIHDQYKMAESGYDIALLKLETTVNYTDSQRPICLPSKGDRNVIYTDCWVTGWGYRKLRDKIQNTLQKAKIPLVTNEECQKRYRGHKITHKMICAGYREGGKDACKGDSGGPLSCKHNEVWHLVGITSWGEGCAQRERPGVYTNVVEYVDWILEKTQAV
Chain of purified human Factor XIa (P03951 whole entry partner, looked up): as the sequence (P03951 whole entry, looked up) above

Chain of purified human plasma kallikrein (P03952 whole entry, looked up): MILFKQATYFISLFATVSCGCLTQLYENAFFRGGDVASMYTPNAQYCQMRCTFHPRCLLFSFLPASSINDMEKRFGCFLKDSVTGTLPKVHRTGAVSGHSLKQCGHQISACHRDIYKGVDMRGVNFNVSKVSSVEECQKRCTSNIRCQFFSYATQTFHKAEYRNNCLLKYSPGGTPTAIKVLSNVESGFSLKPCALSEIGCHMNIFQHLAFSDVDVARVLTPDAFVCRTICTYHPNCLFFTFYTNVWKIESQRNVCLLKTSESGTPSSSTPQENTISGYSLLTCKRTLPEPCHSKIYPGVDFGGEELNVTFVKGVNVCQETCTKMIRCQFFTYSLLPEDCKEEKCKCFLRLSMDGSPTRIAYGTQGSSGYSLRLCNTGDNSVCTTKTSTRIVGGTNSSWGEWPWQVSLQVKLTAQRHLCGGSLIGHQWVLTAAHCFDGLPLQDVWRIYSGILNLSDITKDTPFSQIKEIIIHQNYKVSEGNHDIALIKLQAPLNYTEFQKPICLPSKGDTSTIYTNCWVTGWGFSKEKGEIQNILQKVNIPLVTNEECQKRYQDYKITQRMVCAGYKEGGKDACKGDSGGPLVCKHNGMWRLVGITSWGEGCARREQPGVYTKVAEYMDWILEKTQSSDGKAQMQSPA
Chain of purified human plasma kallikrein (P03952 whole entry partner, looked up): as the sequence (P03952 whole entry, looked up) above

SMILES | Ki [1] | Ki [2]
C[C@@H]1CCC[C@H](N2CCC(c3c(-c4cn[nH]c4)ccc(Cl)c3F)=CC2=O)c2cc(ccn2)-c2ccccc2NC1=O [Example 55, (10R,14S)-14-{4-[3-Chloro-2-fluoro-6-(1H-pyrazol-4-yl)phenyl]-6-oxo-1,2,3,6-tetrahydropyridin-1-yl}-10-methyl-8,16-diazatricyclo[13.3.1.0^2,7]nonadeca-1(19),2,4,6,15,17-hexaen-9-one, TFA salt] | 19 nM | 2.73 nM
COC(=O)Nc1ccc2c(c1)NC(=O)[C@H](C)CCC[C@H](n1ncc(-c3c(Br)ccc(Cl)c3F)cc1=O)c1cc-2ccn1 [Example 78, Methyl N-[(10R,14S)-14-[4-(6-bromo-3-chloro-2-fluorophenyl)-6-oxo-1,6-dihydropyridazin-1-yl]-10-methyl-9-oxo-8,16-diazatricyclo[13.3.1.0^2,7]nonadeca-1(19),2(7),3,5,15,17-hexaen-5-yl]carbamate, TFA salt] | 5 nM | 0.98 nM
COC(=O)Nc1ccc2c(c1)NC(=O)[C@H](C)CCC[C@H](N1CCC(c3c(OC)ccc(Cl)c3F)=CC1=O)c1cc-2ccn1 [Example 1, Methyl N-[(10R,14S)-14-[4-(3-chloro-2-fluoro-6-methoxyphenyl)-6-oxo-1,2,3,6-tetrahydropyridin-1-yl]-10-methyl-9-oxo-8,16-diazatricyclo[13.3.1.0^2,7]nonadeca-1(19),2,4,6,15,17-hexaen-5-yl]carbamate, TFA salt] | 10 nM | 0.87 nM
COC(=O)Nc1ccc2c(c1)NC(=O)[C@H](C)CCC[C@H](N1CCC(c3c(C#N)ccc(C#N)c3F)=CC1=O)c1cc-2cc(OC)n1 [Example 7, Methyl N-[(10R,14S)-14-[4-(3,6-dicyano-2-fluorophenyl)-6-oxo-1,2,3,6-tetrahydropyridin-1-yl]-17-methoxy-10-methyl-9-oxo-8,16-diazatricyclo[13.3.1.0^2,7]nonadeca-1(18),2,4,6,15(19),16-hexaen-5-yl]carbamate] | 10 nM | 5.42 nM
COC(=O)Nc1ccc2c(c1)NC(=O)[C@H](C)CCC[C@H](N1CCC(c3c(F)ccc(Cl)c3F)=C(C)C1=O)c1cc-2ccn1 [Example 64, Methyl N-[(10R,14S)-14-[4-(3-chloro-2,6-difluorophenyl)-5-methyl-6-oxo-1,2,3,6-tetrahydropyridin-1-yl]-10-methyl-9-oxo-8,16-diazatricyclo[13.3.1.0^2,7]nonadeca-1(19),2,4,6,15,17-hexaen-5-yl]carbamate, TFA salt] | 171 nM | 16.6 nM
COC(=O)Nc1ccc2c(c1)NC(=O)[C@H](C)C(=O)CC[C@H](N1CCC(c3c(F)ccc(Cl)c3F)=CC1=O)c1cc-2ccn1 [Example 136, Methyl N-[(10R,14S)-14-[4-(3-chloro-2,6-difluorophenyl)-6-oxo-1,2,3,6-tetrahydropyridin-1-yl]-10-methyl-9,11-dioxo-8,16-diazatricyclo[13.3.1.0^2,7]nonadeca-1(19),2(7),3,5,15,17-hexaen-5-yl]carbamate] | 118 nM | 45.3 nM
C[C@@H]1CCC[C@H](n2ccc(-c3c(F)ccc(Cl)c3F)cc2=O)c2cc(ccn2)-c2c(F)cccc2NC1=O [Example 200, (10R,14S)-14-[4-(3-chloro-2,6-difluorophenyl)-2-oxo-1,2-dihydropyridin-1-yl]-3-fluoro-10-methyl-8,16-diazatricyclo[13.3.1.0^2,7]nonadeca-1(19),2(7),3,5,15,17-hexaen-9-one, TFA salt] | 28.7 nM | 18.1 nM
COC(=O)c1ccc2c(c1)-c1cccc(c1)[C@@H](N1CCC(c3c(C#N)ccc(Cl)c3F)=CC1=O)CCC[C@@H](C)C(=O)N2 [Example 170, Methyl (10R,14S)-14-[4-(3-chloro-6-cyano-2-fluorophenyl)-6-oxo-1,2,3,6-tetrahydropyridin-1-yl]-10-methyl-9-oxo-8-azatricyclo[13.3.1.0^2,7]nonadeca-1(18),2,4,6,15(19),16-hexaene-4-carboxylate] | 7.73 nM | 46.6 nM

Source: patent publication US9409908B2 (priority 2012, dated 2016)
